Reference: patent publication US20220332836A1, “A METHOD FOR PREVENTING HUMAN VIRUS ASSOCIATED DISORDERS IN PATIENTS” (NOVARTIS AG, priority 2019, published 2022)

How the values were obtained:
[1] = tested on: EBV-seropositive EBV-B cell/T cell co-cultures; experiment: EBV-B cell/T cell co-culture, EBV-seropositive donors
[2] = tested on: EBV-seronegative EBV-B cell/T cell co-cultures; experiment: EBV-B cell/T cell co-culture, EBV-seronegative donors; assay type: cell-based, human
[3] = tested on: PBMC incubated with EBV supernatant; experiment: EBV regression assay with PBMC; assay type: cell-based, human
Method: Buffy coats from six healthy volunteers (18-001 to 18-006) were received from Blutspendezentrum Bern. Peripheral blood mononuclear cells (PBMC) were isolated using LeucoSep tubes following manufacturer's instructions, counted with TC20 and adjusted in cell culture medium (Medium, buffers and reagents). All conditions (see Table 3-2) were run in five replicates in 96-well U-bottom plates and contained 2×10^5 cells/well. PBMC were incubated for 10-15 minutes at 37° C. before adding cell culture medium containing EBV-supernatant and transferrin (see Medium, buffers and reagents). […] Cell pellets were stained and analyzed by flow cytometry (FACS staining procedure).
In FIG. 1, the gating strategy is shown.

human CD40 = target: T1, human CD40 (human, UniProt P25942 21-193, limits assumed); experiment: method not stated
T1 construct: also called tumor necrosis factor receptor superfamily member 5

[4] = tested on: NK cell-depleted PBMC cultures; experiment: EBV regression assay, complete or NK cell-depleted PBMC; assay type: cell-based, human; conditions: 14 days
Source text: (§1) FIG. 16 provides CD3^+ T cell counts from the NK cell-depleted PBMC regression assay after 14 days of culture measured by flow cytometry. Antibodies (in μg/mL) and CsA (in μM) were given in combination with EBV supernatants (except the negative control=medium w/o EBV). Dotted horizontal line was set to the condition ‘medium+EBV’. Data are shown as mean+SEM (n=4).
as §1, with “17” for “16”, “CD19^+ B cell counts from the PBMC regression assay after 14 days of culture measured by flow cytometry. Antibodies (in μg/mL) and CsA (in μM) were given in combination with EBV supernatants (except the negative control=medium w/o EBV). Dotted horizontal line was set to the condition ‘medium+EBV’. Data are shown as mean+SEM (n=4); and CD19^+ B” for “CD3^+ T”
All conditions except ‘medium w/o EBV’ were incubated with EBV supernatant and respective compound or antibodies. […] Looking at the CD19+ B cell proliferation (FIG. 3), there was an obvious increase in CD19+ B cell counts when PBMC were incubated with EBV supernatant compared to PBMC cultured with medium only (medium w/o EBV). […]

[5] = 10-200 μg/mL, priming, recall, priming and recall, 11 days
[6] = 14 days, CsA 0.1, 1 μM, Belatacept 10, 50 μg/mL, CFZ533, hIgG1 10-200 μg/mL, vs medium+EBV

T1 sequence (P25942 21-193 limits assumed): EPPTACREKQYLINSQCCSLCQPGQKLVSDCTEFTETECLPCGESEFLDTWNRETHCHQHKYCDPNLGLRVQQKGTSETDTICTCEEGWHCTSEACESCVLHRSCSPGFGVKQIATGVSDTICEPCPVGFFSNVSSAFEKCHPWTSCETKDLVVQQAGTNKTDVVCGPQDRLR

Molecule: Belatacept: CTLA4-Ig fusion protein; blocks CD80/CD86 and thereby inhibits T cell costimulation
- CD3+ T cell proliferation [1, 5]: reduced
- CD4+ T cell proliferation [1, 5]: reduced
- CD3+ T cell proliferation ([1]; 100 and 200 μg/mL): only an reducing effect on the T cell proliferation at the ‘priming and recall’ phase
- CD4+ T cell proliferation ([1]; 100 and 200 μg/mL, priming and recall phase): robust reducing effect
- CD3+ T cell proliferation, 10 and 50 μg/mL versus 100 and 200 μg/mL ([1]; all three conditions): slightly stronger but not significant suppression pattern
- CD4+ T cell proliferation, 10 and 50 μg/mL versus 100 and 200 μg/mL ([1]; all three conditions): slightly stronger but not significant suppression pattern
- EBV-mediated T cell proliferation and IFNγ secretion in presence of EBV-B cells ([1]; co-culture system, EBV-B cells sero-positive and sero-negative): reduced
- CD4+ T cell proliferation, differences between the four doses ([2]; 10, 50, 100 and 200 μg/mL): no evident differences
- CD4+ T cell proliferation ([2]; 10-200 μg/mL, all three conditions): reduced
- CD3+ T cell proliferation [2, 5]: reduced
- CD8+ T cell proliferation ([2]; 10 and 50 μg/mL, recall only and priming and recall): only a reducing effect
- CD3+ T cell proliferation ([2]; 100 and 200 μg/mL, priming and recall condition): only a reducing effect
- CD3+ T cell proliferation ([2]; 100 and 200 μg/mL, priming or recall only condition): only minor
- CD8+ T cell proliferation ([2]; 100 and 200 μg/mL, priming phase only): increased
- CD3+ T cell proliferation, 10 and 50 μg/mL versus 100 and 200 μg/mL ([2]; all three conditions): slightly stronger but not significant suppression pattern
- CD3+ T cell counts [3, 6]: to a lesser degree than with CsA
- CD19+ B cell counts [3, 6]: increase
- T cell activity (resulting in over-growth of in vitro immortalized cells) ([3]; EBV regression assay): reduced

B1: mAb1 (antibody, human IgG1, kappa, N297A, V domains shown)
VH: QVQLVESGGGVVQPGRSLRLSCAASGFTFSSYGMHWVRQAPGKGLEWVAVISYEESNRYHADSVKGRFTISRDNSKITLYLQMNSLRTEDTAVYYCARDGGIAAPGPDYWGQGTLVTVSS
VL: DIVMTQSPLSLTVTPGEPASISCRSSQSLLYSNGYNYLDWYLQKPGQSPQVLISLGSNRASGVPDRFSGSGSGTDFTLKISRVEAEDVGVYYCMQARQTPFTFGPGTKVDIRR
notes: also called CFZ533; Iscalimab
- Kd (human CD40): 0.3 nM

B2: HCD122: a depleting CD40 mAb as positive control (antibody, chains of the INN, looked up, V domains shown)
VH: QVQLVESGGGVVQPGRSLRLSCAASGFTFSSYGMHWVRQAPGKGLEWVAVISYEESNRYHADSVKGRFTISRDNSKITLYLQMNSLRTEDTAVYYCARDGGIAAPGPDYWGQGTLVTVSS
VL: DIVMTQSPLSLTVTPGEPASISCRSSQSLLYSNGYNYLDWYLQKPGQSPQVLISLGSNRASGVPDRFSGSGSGTDFTLKISRVEAEDVGVYYCMQARQTPFTFGPGTKVDIR
- CD19+ B cell counts [4]: did deplete B cells
